From patent US20120309683A1, “USE OF […] ADENYLATE CYCLASE-ACTIVATING POLYPEPTIDE (PACAP) AND PACAP ANALOGS AS ADJUNCTIVE TREATMENTS WITH INHIBITORS OF CALCINEURIN OR INHIBITORS OF THE […] TARGET OF RAPAMYCIN (mTOR) COMPLEXES” (The Administrators of the Tulane Educational Fund, priority 2010, published 2012)
Read-outs that look alike come from different tables or passages of the source.

Experiments:
[1] = system: IL-2 synthesis; conditions: cited from earlier work
[2] = system: HK-2 human kidney cells (human renal proximal tubule epithelial cells); test: Tacrolimus-induced loss of viability of HK-2 cells, lactate dehydrogenase in intact cells; format: cell-based
Protocol: The HK-2 human kidney cells were cultured in Keratinocyte-Serum Free Medium supplemented with recombinant epidermal growth factor and bovine pituitary extract. […] Each value represents the mean plus/minus the standard error of five determinations. **p<0.01 and *p<0.05 compared to the cells treated only with tacrolimus.

[3] = system: light-chain immunoglobulin-secreting human multiple myeloma cells; test: Proliferation of multiple myeloma cells with sirolimus, bromodeoxyuridine incorporation; format: cell-based
Protocol: The light-chain immunoglobulin-secreting human multiple myeloma cells were cultured in RPMI 1640 medium supplemented with 10% non-inactivated fetal bovine serum and 0.05 mM 2-mercaptoethanol. The effects of PACAP38, PACAP27 and PACAP analogs on myeloma cell proliferation were assessed by determining incorporation of bromodeoxyuridine into DNA during cell division. The number of myeloma cells approximately doubled during the 24-hour incubation period in the absence of treatment with PACAP-like peptides. Four different concentrations, ranging from 10^−9 M to 10^−6 M, were tested for PACAP38, PACAP27 and each of the PACAP analogs. Each value represents the mean plus/minus the standard error of four determinations. **p<0.01 and *p<0.05 compared to the cells treated only with sirolimus.
The effects of PACAP38, PACAP27 and PACAP analogs on human cell proliferation were assessed by determining incorporation of bromodeoxyuridine into DNA during cell division. […] At the highest dose (10^−6 M), PACAP38 inhibited the proliferation by more than 50%.

[4] = system: human renal proximal tubule epithelial cells; test: Methotrexate-induced apoptotic cell death of human renal proximal tubule epithelial cells; format: cell-based; conditions: methotrexate for 24 hours
Protocol: The inhibitory effects of PACAP38 on apoptotic cell death were assessed by the quantitative determination of cytoplasmic histone-associated DNA-fragmentation (mono- and oligonucleosomes) after exposure to methotrexate for 24 hours. Each value represents the mean plus/minus the standard deviation of six determinations. **p<0.01 and *p<0.05 compared to the cells treated only with methotrexate.
(§1) An ideal cytoprotective adjunctive agent should have the same effect as the main therapeutic agent against the intended therapeutic target, but protect the patient against the deleterious “off-target” effects of the main therapeutic. […] Furthermore, these experiments indicate that PACAP-like compounds would be beneficial as monotherapeutics for the treatment of leukemias. These experiments also indicate that combination therapy with PACAP-like compounds plus azathioprine or 6-mercaptopurine would result in an increased therapeutic index compared to azathioprine or 6-mercaptopurine, respectively, alone.

[5] = system: HK-2 human kidney cells; test: Morphology of HK-2 cells, phase-contrast microscopy; format: cell-based; conditions: 50 μM cyclosporine A and 10^−8 M PACAP38 for 48 hours
Protocol: The cells were visualized with an inverted phase-contrast microscope. The HK-2 human kidney cells were grown to 80% confluence. (A) The morphology of the HK-2 cells grown in normal medium.

[6] = system: human T-lymphocyte cells (Jurkat); test: Methotrexate-induced apoptotic cell death of Jurkat cells; format: cell-based; conditions: methotrexate and PACAP38 for 24 hours, same dose range
Protocol: The Jurkat cells were cultured in RPMI 1640 medium supplemented with 10% heat-inactivated fetal calf serum. The cells were treated with PACAP38 for 24 hours. The […] effects of PACAP38 on apoptotic cell death were assessed by the quantitative determination of cytoplasmic histone-associated DNA-fragmentation (mono- and oligonucleosomes) after exposure to methotrexate for 24 hours. Each value represents the mean plus/minus the standard error of eight determinations. **p<0.01 and *p<0.05 compared to the cells treated only with methotrexate.
as §1

[7] = system: rat; conditions: 15-minute occlusion, continuous infusion; cited from earlier work
[8] = system: HK-2 human kidney cells (human renal proximal tubule epithelial cells); test: Cyclosporine A-induced injury (cytotoxicity) of HK-2 cells, lactate dehydrogenase in culture medium; format: cell-based; conditions: PACAP38 10^−8 M added to medium of cyclosporine A-treated HK-2 cells
Protocol: The effects of PACAP38 at a concentration of 10^−8 M on cell injury were assessed by determining the activity of the cytoplasmic enzyme lactate dehydrogenase in the culture medium. Each value represents the mean plus/minus the standard error of four determinations. **p<0.01 compared to the cells treated only with cyclosporine A.

[9] = system: Jurkat human T-lymphocyte cells; test: Mitogen-stimulated secretion of interleukin-2 from Jurkat cells; format: cell-based; conditions: PHA and PMA stimulated Jurkat cells
Protocol: The Jurkat human T-lymphocyte cells were cultured in RPMI 1640 medium supplemented with 10% heat-inactivated fetal calf serum. The Jurkat cells were stimulated with the mitogens phytohemagglutinin (PHA, 1 mg/ml) and phorbol 12-myristate 13-acetate (PMA, 50 ng/ml). […] Each value represents the mean plus/minus the standard error of eight determinations. **p<0.01 and *p<0.05 compared to the cells treated only with the mitogens.
(§2) However, when Jurkat cells were stimulated with PHA and PMA, large quantities of interleukin-2 could be detected in the medium (FIG. 9). […] At the highest dose (10^−5 M), PACAP38 inhibited the proliferation of the Jurkat cells by more than 50%.

[10] = system: Jurkat human T-lymphocyte cells; test: Inhibition by cyclosporine A of IL-2 secretion from Jurkat cells, enhancement by peptides; format: cell-based; conditions: peptide added on top of cyclosporine, 24 hours
Protocol: The Jurkat human T-lymphocyte cells were cultured in RPMI 1640 medium supplemented with 10% heat-inactivated fetal calf serum. The Jurkat cells were stimulated with mitogens (1 mg/ml of PHA and 50 ng/ml of PMA). […] Each value represents the mean plus/minus the standard error of eight determinations. **p<0.01 and *p<0.05 compared to the cells treated only with the mitogens.
However, when Jurkat cells were stimulated with PHA and PMA, large quantities of interleukin-2 could be detected in the medium (FIG. 11).

[11] = system: human renal proximal tubule epithelial cells (HK-2); test: TGF-β1 secretion by HK-2 cells treated with cyclosporine A; format: cell-based; conditions: PACAP38 10^−8 M, cyclosporine A-treated HK-2 cells
Protocol: The effects of PACAP38 at a concentration of 10^−8 M on the production of TGF-β1 were assessed by determining the concentration of TGF-β1 in the culture medium. Each value represents the mean plus/minus the standard error of six determinations. **p<0.01 compared to the cells treated only with cyclosporine A.

[12] = system: Male C57BL/6 mice; test: Cyclosporine A-induced nephrotoxicity in mice (serum creatinine, kidney TGF-β1); format: in vivo; conditions: cyclosporine A 5 mg/kg i.p., 20 μg PACAP38 i.p. 1 h before, 24 and 48 h
Protocol: The control group of mice was injected intraperitoneally with the same volume of saline as for the injections of cyclosporine A and PACAP38 on the same schedule. The mice were euthanized 24 hours after the final injection of PACAP38.
Male C57BL/6 mice were given a single intraperitoneal injection of 5 mg/kg of cyclosporine A. Twenty micrograms of PACAP38 were given intraperitoneally 1 hour before the injection of cyclosporine A and additional doses were given at 24 and 48 hours after the initial dose. The control group of mice was injected intraperitoneally with the same volume of saline as for the injections of cyclosporine A and PACAP38 on the same schedule. The mice were euthanized 24 hours after the final injection of PACAP38.

[13] = system: HK-2 human kidney cells (human renal proximal tubule epithelial cells); test: Sirolimus-induced apoptotic cell death of HK-2 cells, histone-associated DNA fragmentation; format: cell-based
Protocol: The HK-2 human kidney cells were cultured in Keratinocyte-Serum Free Medium supplemented with recombinant epidermal growth factor and bovine pituitary extract. The dose-dependent inhibitory effect of PACAP38 on apoptotic cell death was assessed by the quantitative determination of cytoplasmic histone-associated DNA-fragmentation (mono- and oligonucleosomes) after exposure to 100 ng/ml of sirolimus for 24 hours. Each value represents the mean plus/minus the standard error of eight determinations. **p<0.01 and *p<0.05 compared to the cells treated only with sirolimus.

[14] = system: rat; conditions: 48 hours, cited from earlier work
[15] = system: Jurkat human T-lymphocyte cells; test: Proliferation of Jurkat cells, bromodeoxyuridine incorporation; format: cell-based
Protocol: The Jurkat human T-lymphocyte cells were cultured in RPMI 1640 medium supplemented with 10% heat-inactivated fetal calf serum. The Jurkat cells were stimulated with mitogens (1 mg/ml of PHA and 50 ng/ml of PMA).
as §2

## C=CC[C@@H]1/C=C(\C)C[C@H](C)C[C@H](OC)[C@H]2O[C@@](O)(C(=O)C(=O)N3CCCC[C@H]3C(=O)O[C@H](/C(C)=C/[C@@H]3CC[C@@H](O)[C@H](OC)C3)[C@H](C)[C@@H](O)CC1=O)[C@H](C)C[C@@H]2OC [tacrolimus, reference compound]
[1]
  potency as an inhibitor of IL-2 synthesis relative to cyclosporine A: about 100 -fold
[2]; tacrolimus alone, HK-2 cells
  number of viable cells: large significant decrease in the number of viable cells

## PACAP38
[3]; highest dose 10^−6 M
  inhibition of proliferation: more than 50%
[3]; multiple myeloma cells with sirolimus, 10^−9 M to 10^−6 M peptide, 24-hour incubation
  rate of proliferation of the human B-lymphocyte cell line: significant dose-dependent inhibition
[4]
  toxic side-effects of methotrexate on human renal proximal tubule epithelial cells (apoptotic cell death): potently inhibits the toxic side-effects of methotrexate
[5]
  restoration of the cell monolayer, confluence: 70-80%
[5]; versus cyclosporine A alone
  number of grossly elongated and filopodia-formatted cells: marked reduction
[6]
  killing of human T lymphocyte cells by methotrexate (apoptotic cell death): potently stimulates the killing
[7]
  reduction in the number of CA1 pyramidal cells at day 7 post-occlusion: significantly reversed
[8]
  cyclosporine A-induced cell death: almost completely prevented
[9]
  relative potency of PACAP38 and VIP on interleukin-2 secretion: appeared to be equipotent
[9]; 24 hours
  mitogen-induced secretion of interleukin-2 into the medium: large significant inhibition
[10]
  cyclosporine-induced inhibition of interleukin-2 secretion: small dose-dependent enhancement
[11]
  cyclosporine A-induced secretion of TGF-β1 into the medium: almost completely prevented the secretion of TGF-β1
[12]
  increase in TGF-β1 in the kidney: significantly reduced the increases
  increase in serum creatinine: significantly reduced the increases
[13]; highest dose 10^−6 M
  sirolimus-induced apoptotic cell death: almost completely prevented
[13]; varying concentrations of PACAP38
  sirolimus-induced apoptotic cell death: significant dose-dependent reduction
[14]; continuous i.v. infusion beginning 4 hours after start of 2 h MCAO
  reduction of the infarct volume: approximately 51%
[14]; continuous i.v. infusion beginning 8 hours after start of 2 h MCAO
  reduction of the infarct volume: ~22%
[14]; continuous i.v. infusion beginning 12 hours after start of 2 h MCAO
  reduction of the infarct volume: ~12%
[2]; tacrolimus-treated HK-2 cells
  potency as a renoprotectant relative to VIP: significantly more potent than VIP
[2]; various concentrations of peptide added to medium
  loss of viable human renal proximal tubule epithelial cells caused by tacrolimus: significant dose-dependent reduction
[15]; highest dose 10^−5 M
  inhibition of proliferation of Jurkat cells: more than 50%
[15]; mitogen-stimulated Jurkat cells, 24 hours
  rate of proliferation of the human T-lymphocyte cell line: significant dose-dependent inhibition
